Experiments:
Format in all cases: functional
OVCAR-4 [1] = assay: Cytotoxicity against human OVCAR4 cells assessed as cell growth at 100 uM after 1 to 11 days by MTT assay; conditions: read-out: Activity
NCI-H226 [2] = assay: Cytotoxicity against human NCI-H226 cells assessed as cell growth at 0.1 uM after 1 to 11 days by MTT assay; conditions: read-out: Activity
SK-OV-3 [3] = assay: Cytotoxicity against human SKOV3 cells assessed as cell growth at 10 uM after 1 to 11 days by MTT assay; conditions: read-out: Activity
SK-OV-3 [4] = assay: Cytotoxicity against human SKOV3 cells after 1 to 11 days by MTT assay
COLO 205 = assay: Cytotoxicity against human COLO205 cells assessed as cell growth at 10 uM after 1 to 11 days by MTT assay; conditions: read-out: Activity
HT-29 = assay: Cytotoxicity against human HT-29 cells assessed as cell growth at 1 mM after 1 to 11 days by MTT assay; conditions: read-out: Activity
ACHN = assay: Cytotoxicity against human ACHN cells assessed as cell growth at 1 mM after 1 to 11 days by MTT assay; conditions: read-out: Activity
HOP-62 [5] = assay: Cytotoxicity against human HOP62 cells after 1 to 11 days by MTT assay
RPMI-8226 [6] = assay: Cytotoxicity against human RPMI8226 cells assessed as cell growth at 10 uM after 1 to 11 days by MTT assay; conditions: read-out: Activity
MDA-MB-468 [7] = assay: Cytotoxicity against human MDA-MB-468 cells assessed as cell growth at 1 uM after 1 to 11 days by MTT assay; conditions: read-out: Activity
OVCAR-3 [8] = assay: Cytotoxicity against human OVCAR-3 cells assessed as cell growth at 10 uM after 1 to 11 days by MTT assay; conditions: read-out: Activity
OVCAR-4 [9] = assay: Cytotoxicity against human OVCAR4 cells assessed as cell growth at 0.1 uM after 1 to 11 days by MTT assay; conditions: read-out: Activity
NCI-H322M = assay: Cytotoxicity against human NCI-H322M cells assessed as cell growth at 1 mM after 1 to 11 days by MTT assay; conditions: read-out: Activity
SN12C [10] = assay: Cytotoxicity against human SN12C cells assessed as cell growth at 100 uM after 1 to 11 days by MTT assay; conditions: read-out: Activity
U-251 = assay: Cytotoxicity against human U251 cells after 1 to 11 days by MTT assay
786-0 = assay: Cytotoxicity against human 786-0 cells assessed as cell growth at 1 uM after 1 to 11 days by MTT assay; conditions: read-out: Activity
RXF 393 = assay: Cytotoxicity against human […] cells assessed as cell growth at 0.1 uM after 1 to 11 days by MTT assay; conditions: read-out: Activity
SNB-19 = assay: Cytotoxicity against human SNB19 cells assessed as cell growth at 1 uM after 1 to 11 days by MTT assay; conditions: read-out: Activity
NCI-H226 [11] = assay: Cytotoxicity against human NCI-H226 cells assessed as cell growth at 100 uM after 1 to 11 days by MTT assay; conditions: read-out: Activity
NCI-H460 [12] = assay: Cytotoxicity against human NCI-H460 cells assessed as cell growth at 1 uM after 1 to 11 days by MTT assay; conditions: read-out: Activity
SK-MEL-5 = assay: Cytotoxicity against human SK-MEL-5 cells after 1 to 11 days by MTT assay
UACC-257 [13] = assay: Cytotoxicity against human UACC257 cells assessed as cell growth at 0.1 uM after 1 to 11 days by MTT assay; conditions: read-out: Activity
NCI-H460 [14] = assay: Cytotoxicity against human NCI-H460 cells assessed as cell growth at 1 mM after 1 to 11 days by MTT assay; conditions: read-out: Activity
HCT-15 = assay: Cytotoxicity against human HCT15 cells assessed as cell growth at 10 uM after 1 to 11 days by MTT assay; conditions: read-out: Activity
SF-268 = assay: Cytotoxicity against human SF268 cells assessed as cell growth at 0.1 uM after 1 to 11 days by MTT assay; conditions: read-out: Activity
UACC-257 [15] = assay: Cytotoxicity against human UACC257 cells assessed as cell growth at 1 uM after 1 to 11 days by MTT assay; conditions: read-out: Activity
DU-145 = assay: Cytotoxicity against human DU145 cells assessed as cell growth at 10 uM after 1 to 11 days by MTT assay; conditions: read-out: Activity
UACC-257 [16] = assay: Cytotoxicity against human UACC257 cells assessed as cell growth at 100 uM after 1 to 11 days by MTT assay; conditions: read-out: Activity
SN12C [17] = assay: Cytotoxicity against human SN12C cells after 1 to 11 days by MTT assay
RPMI-8226 [18] = assay: Cytotoxicity against human RPMI8226 cells after 1 to 11 days by MTT assay
SN12C [19] = assay: Cytotoxicity against human SN12C cells assessed as cell growth at 0.1 uM after 1 to 11 days by MTT assay; conditions: read-out: Activity
LOX IMVI = assay: Cytotoxicity against human LOXIMVI cells assessed as cell growth at 0.1 uM after 1 to 11 days by MTT assay; conditions: read-out: Activity
HOP-62 [20] = assay: Cytotoxicity against human HOP62 cells assessed as cell growth at 10 uM after 1 to 11 days by MTT assay; conditions: read-out: Activity
K562 = assay: Cytotoxicity against human K562 cells assessed as cell growth at 0.1 uM after 1 to 11 days by MTT assay; conditions: read-out: Activity
KM12 = assay: Cytotoxicity against human KM12 cells assessed as cell growth at 1 mM after 1 to 11 days by MTT assay; conditions: read-out: Activity
UO-31 = assay: Cytotoxicity against human UO31 cells assessed as cell growth at 1 mM after 1 to 11 days by MTT assay; conditions: read-out: Activity
SW-620 = assay: Cytotoxicity against human SW620 cells assessed as cell growth at 10 uM after 1 to 11 days by MTT assay; conditions: read-out: Activity
MDA-MB-231 = assay: Cytotoxicity against human MDA-MB-231 cells after 1 to 11 days by MTT assay
SF-539 [21] = assay: Cytotoxicity against human SF539 cells after 1 to 11 days by MTT assay
OVCAR-4 [22] = assay: Cytotoxicity against human OVCAR4 cells assessed as cell growth at 10 uM after 1 to 11 days by MTT assay; conditions: read-out: Activity
SF-539 [23] = assay: Cytotoxicity against human SF539 cells assessed as cell growth at 1 uM after 1 to 11 days by MTT assay; conditions: read-out: Activity
OVCAR-3 [24] = assay: Cytotoxicity against human OVCAR-3 cells after 1 to 11 days by MTT assay
MDA-MB-468 [25] = assay: Cytotoxicity against human MDA-MB-468 cells assessed as cell growth at 0.1 uM after 1 to 11 days by MTT assay; conditions: read-out: Activity
[26] = read-out: LC50 (the source's name)

O=C1Nc2ncccc2/C1=C1/Nc2ccccc2/C1=N\O
growth at 100 µM (OVCAR-4 [1]): 48%
growth at 0.1 µM (NCI-H226 [2]): 86%
growth at 10 µM (SK-OV-3 [3]): 69%
GI50 (SK-OV-3 [4]): 1.79 µM
CC50 (SK-OV-3 [4]; [26]): > 100 µM
growth at 10 µM (COLO 205): 84%
growth at 1000 µM (HT-29): 48%
growth at 1000 µM (ACHN): 17%
GI50 (HOP-62 [5]): > 100 µM
TGI (HOP-62 [5]): > 100 µM
CC50 (HOP-62 [5]; [26]): > 100 µM
growth at 10 µM (RPMI-8226 [6]): 68%
growth at 1 µM (MDA-MB-468 [7]): 75%
growth at 10 µM (OVCAR-3 [8]): 80%
growth at 0.1 µM (OVCAR-4 [9]): 94%
growth at 1000 µM (NCI-H322M): 12%
growth at 100 µM (SN12C [10]): 37%
GI50 (U-251): > 100 µM
TGI (U-251): > 100 µM
CC50 (U-251; [26]): > 100 µM
growth at 1 µM (786-0): 115%
growth at 0.1 µM (RXF 393): 93%
growth at 1 µM (SNB-19): 97%
growth at 100 µM (NCI-H226 [11]): -5%
growth at 1 µM (NCI-H460 [12]): 105%
GI50 (SK-MEL-5): 9.53 µM
TGI (SK-MEL-5): > 100 µM
CC50 (SK-MEL-5; [26]): > 100 µM
growth at 0.1 µM (UACC-257 [13]): 98%
growth at 1000 µM (NCI-H460 [14]): 32%
growth at 10 µM (HCT-15): 80%
growth at 0.1 µM (SF-268): 100%
growth at 1 µM (UACC-257 [15]): 92%
growth at 10 µM (DU-145): 84%
growth at 100 µM (UACC-257 [16]): 79%
GI50 (SN12C [17]): 4.98 µM
TGI (SN12C [17]): > 100 µM
CC50 (SN12C [17]; [26]): > 100 µM
GI50 (RPMI-8226 [18]): 1.89 µM
TGI (RPMI-8226 [18]): 62.5 µM
CC50 (RPMI-8226 [18]; [26]): > 100 µM
growth at 0.1 µM (SN12C [19]): 93%
growth at 0.1 µM (LOX IMVI): 98%
growth at 10 µM (HOP-62 [20]): 105%
growth at 0.1 µM (K562): 88%
growth at 1000 µM (KM12): 6%
growth at 1000 µM (UO-31): 11%
growth at 10 µM (SW-620): 98%
GI50 (MDA-MB-231): 5.28 µM
TGI (MDA-MB-231): > 100 µM
CC50 (MDA-MB-231; [26]): > 100 µM
GI50 (SF-539 [21]): > 100 µM
TGI (SF-539 [21]): > 100 µM
CC50 (SF-539 [21]; [26]): > 100 µM
growth at 10 µM (OVCAR-4 [22]): 96%
growth at 1 µM (SF-539 [23]): 91%
GI50 (OVCAR-3 [24]): > 100 µM
TGI (OVCAR-3 [24]): > 100 µM
CC50 (OVCAR-3 [24]; [26]): > 100 µM
growth at 0.1 µM (MDA-MB-468 [25]): 77%

Reference: ChEMBL document CHEMBL1154822, “Synthesis and antiproliferative activity of 7-azaindirubin-3'-oxime, a 7-aza isostere of the natural indirubin pharmacophore” (J Nat Prod, 2009)
